From PMC3358478 (Chemical Research in Toxicology, 2012) come the findings set out here.

“Also recorded” adds a separate entry of the source.

One data set deals with T1, Human P450 1A1 (Homo sapiens, UniProt P04798).
T1 sequence (P04798 1-512): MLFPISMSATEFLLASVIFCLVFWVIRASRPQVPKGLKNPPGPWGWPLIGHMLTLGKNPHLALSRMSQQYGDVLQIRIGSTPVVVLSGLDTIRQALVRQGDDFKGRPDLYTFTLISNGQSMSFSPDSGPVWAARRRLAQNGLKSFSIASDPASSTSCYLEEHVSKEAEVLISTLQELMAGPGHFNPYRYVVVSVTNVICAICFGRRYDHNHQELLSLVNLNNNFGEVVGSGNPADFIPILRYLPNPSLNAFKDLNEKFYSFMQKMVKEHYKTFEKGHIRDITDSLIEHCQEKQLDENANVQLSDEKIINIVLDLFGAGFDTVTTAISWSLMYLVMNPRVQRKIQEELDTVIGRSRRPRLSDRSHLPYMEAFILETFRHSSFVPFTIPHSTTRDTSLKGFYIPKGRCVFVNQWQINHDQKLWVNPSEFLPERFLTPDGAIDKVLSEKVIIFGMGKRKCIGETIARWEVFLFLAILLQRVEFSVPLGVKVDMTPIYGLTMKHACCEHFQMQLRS
The data set can be described thus: Ethoxyresorufin O-deethylation. It is filed as biochemical. The conditions noted are these: for kinact: read-out: limiting Kinact on P450 1A1.

A further data set has as its target T2, Human P450 2A6 (Homo sapiens, UniProt P11509).
T2 sequence (P11509 1-494): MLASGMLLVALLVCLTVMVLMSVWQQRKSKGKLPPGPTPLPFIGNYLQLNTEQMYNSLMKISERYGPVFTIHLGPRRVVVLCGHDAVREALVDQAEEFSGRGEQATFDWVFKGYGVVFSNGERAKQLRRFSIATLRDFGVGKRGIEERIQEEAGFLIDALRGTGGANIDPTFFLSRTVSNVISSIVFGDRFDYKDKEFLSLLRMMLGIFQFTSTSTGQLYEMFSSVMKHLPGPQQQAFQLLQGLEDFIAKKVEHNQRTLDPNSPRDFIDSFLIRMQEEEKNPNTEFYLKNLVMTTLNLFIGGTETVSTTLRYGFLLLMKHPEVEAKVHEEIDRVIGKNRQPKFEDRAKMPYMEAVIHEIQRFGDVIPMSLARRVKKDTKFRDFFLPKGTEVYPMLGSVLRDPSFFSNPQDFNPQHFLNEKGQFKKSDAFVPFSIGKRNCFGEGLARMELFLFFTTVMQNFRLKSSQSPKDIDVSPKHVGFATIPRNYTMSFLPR
The data set can be described thus: Coumarin 7-hydroxylation assay, P450 2A6 inhibition.

A further data set addresses T3, Human P450 1A2 (Homo sapiens, UniProt P05177).
T3 sequence (P05177 1-516): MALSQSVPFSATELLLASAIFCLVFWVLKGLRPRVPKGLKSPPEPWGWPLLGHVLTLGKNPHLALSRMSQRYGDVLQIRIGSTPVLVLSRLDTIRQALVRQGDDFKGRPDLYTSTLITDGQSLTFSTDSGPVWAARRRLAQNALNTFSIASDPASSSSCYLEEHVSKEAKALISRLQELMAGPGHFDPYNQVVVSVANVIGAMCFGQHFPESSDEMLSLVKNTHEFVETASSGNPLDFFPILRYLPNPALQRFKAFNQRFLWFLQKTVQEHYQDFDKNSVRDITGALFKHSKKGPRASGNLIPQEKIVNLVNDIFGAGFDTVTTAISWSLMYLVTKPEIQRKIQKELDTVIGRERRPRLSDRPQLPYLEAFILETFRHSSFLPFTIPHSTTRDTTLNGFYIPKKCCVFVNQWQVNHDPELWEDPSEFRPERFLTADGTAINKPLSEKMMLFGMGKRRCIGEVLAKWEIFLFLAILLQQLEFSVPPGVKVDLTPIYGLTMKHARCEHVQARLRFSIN
The data set can be described thus: Methoxyresorufin O-demethylation. The conditions noted are these: for inhibition behavior toward P450 1A2: concentration- and NADPH-dependence; for difference in the IC50 values, more effective on P450 1A2 than P450 1A1: IC50 1A1 vs 1A2. Type of data set: biochemical.

Another data set addresses T4, rat P450 2B1 (Rattus norvegicus, UniProt P00176).
T4 sequence (P00176 1-491): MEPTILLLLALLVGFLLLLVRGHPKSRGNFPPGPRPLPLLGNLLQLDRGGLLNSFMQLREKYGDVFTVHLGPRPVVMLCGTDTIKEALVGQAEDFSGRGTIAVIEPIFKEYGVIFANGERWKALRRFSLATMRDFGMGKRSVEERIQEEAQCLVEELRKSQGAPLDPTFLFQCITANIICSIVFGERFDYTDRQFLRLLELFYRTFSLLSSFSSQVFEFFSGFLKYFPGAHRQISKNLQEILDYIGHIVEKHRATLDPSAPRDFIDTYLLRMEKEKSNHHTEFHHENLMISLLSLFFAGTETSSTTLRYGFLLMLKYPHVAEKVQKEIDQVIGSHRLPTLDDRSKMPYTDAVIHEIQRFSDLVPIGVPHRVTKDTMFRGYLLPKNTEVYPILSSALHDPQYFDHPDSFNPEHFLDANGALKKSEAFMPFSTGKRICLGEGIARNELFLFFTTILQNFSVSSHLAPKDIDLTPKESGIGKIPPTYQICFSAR
The data set can be described thus: Pentoxyresorufin O-depentylation. Type of data set: biochemical. The conditions noted are these: for inhibition behavior toward P450 2B1: time-dependence.

As for `C#Cc1ccc2c(-c3ccccc3)c(C)c(=O)oc2c1` [7E3M4PC, 7-Ethynyl-3-methyl-4-phenylcoumarin], at Human P450 1A1, the affinity corresponds to a Ki of 3.58 µM and the maximal inactivation rate constant (kinact) (commonly the maximal first-order rate at which the target is inactivated) is 0.00617 s⁻¹. Moreover, on Human P450 2A6, the 50% inhibitory concentration (IC50) (usually the concentration needed to halve the response being measured) is over 50 µM. Also, the “inhibition behavior toward P450 1A2” value against Human P450 1A2 is “does not show a time-dependent loss of enzymatic activity; also recorded: sole competitive inhibitor; also recorded: does not show time- and NADPH-dependent inhibition; also recorded: completely competitive”. Moreover, at rat P450 2B1, the IC50 was 9.16 µM and the “inhibition behavior toward P450 2B1” value is given as “sole mechanism-based inhibitor”. Moreover, on rat P450 2B1 (read-out: limiting Kinact on P450 2B1), the inactivation rate constant (kinact) was 0.00483 s⁻¹.
For the compound `C#Cc1ccc2cc(-c3ccccc3)c(=O)oc2c1` [7E3PC, 7-Ethynyl-3-phenylcoumarin], on Human P450 1A1, affinity was put at a Ki of 0.38 µM and the kinact is 0.00417 s⁻¹. Also, the “potency toward P450 1A1 relative to P450 1A2” value at Human P450 1A1 (IC50 1A2 vs 1A1) is recorded as “about five times more potent”. The compound further returned an IC50 at Human P450 2A6 of over 50 µM. In addition, at Human P450 1A2, affinity was put at a Ki of 0.65 µM; the “inhibition behavior toward P450 1A2” value was “mainly results from competitive inhibition and not from mechanism-based inhibition”. On rat P450 2B1, this compound returned a concentration for half-maximal inhibition (IC50) of over 50 µM.
In the case of `C#Cc1ccc2c(C)c(-c3ccccc3)c(=O)oc2c1` [7E4M3PC, 7-Ethynyl-4-methyl-3-phenylcoumarin], the values for the Ki on Human P450 1A1 and on Human P450 1A2 were 5.16 µM and 0.83 µM, respectively. The inactivation rate constant (kinact) on Human P450 1A1 is 0.00517 s⁻¹. In addition, the IC50 on Human P450 2A6 and against rat P450 2B1 was over 50 µM in each case.
With `C#Cc1ccc2c(C)cc(=O)oc2c1` [7E4MC, 7-Ethynyl-4-methylcoumarin], on Human P450 1A1, the affinity corresponds to a Ki of 38.6 µM and the maximal inactivation rate constant (kinact) is 0.0035 s⁻¹. This compound gave a half-maximal inhibitory concentration (IC50) at Human P450 2A6 of over 50 µM. On Human P450 1A2, the affinity corresponds to a Ki of 2.65 µM and the “difference in the IC50 values, more effective on P450 1A2 than P450 1A1” value is “around 5 fold”. Besides, on rat P450 2B1, the IC50 was over 50 µM.
On to `C#Cc1ccc2c(C(F)(F)F)cc(=O)oc2c1` [7E4TFC, 7-Ethynyl-4-(trifluoromethyl)coumarin], for which, at Human P450 1A1, the Ki (in general, the dissociation constant of the complex between target and ligand, obtained from inhibition or displacement) is 16.8 µM; the kinact was 0.00383 s⁻¹. The same compound registered a 50% inhibitory concentration (IC50) at Human P450 2A6 of over 50 µM. Also, at Human P450 1A2, the affinity, expressed as Ki, was 3.15 µM and the “difference in the IC50 values, more effective on P450 1A2 than P450 1A1” value was “around 5 fold”. Besides, on rat P450 2B1, half-maximal inhibition (IC50) was put at 15.1 µM and the “inhibition behavior toward P450 2B1” value is given as “competitive inhibitor”.
For `C#Cc1cc2oc(=O)ccc2cc1OC` [7E6MOC, 7-Ethynyl-6-methoxycoumarin], the Ki turned out to be 104 µM at Human P450 1A1 and 78.9 µM at Human P450 1A2. In addition, the kinact on Human P450 1A1 is 0.00567 s⁻¹. In addition, the IC50 against Human P450 2A6 and at rat P450 2B1 was over 50 µM in each case.
For the compound `C#Cc1ccc2ccc(=O)oc2c1` [7EC, 7-Ethynylcoumarin], the IC50 at Human P450 2A6 and at rat P450 2B1 was over 50 µM throughout. For the same compound, affinity on Human P450 1A2 was put at a Ki of 5.83 µM.
With `C#Cc1ccc2c(C)c(C)c(=O)oc2c1C` [7ETMC, 7-Ethynyl-3,4,8-trimethylcoumarin], the Ki at Human P450 1A1 is 0.57 µM; at Human P450 1A2, 0.87 µM. Further, the kinact on Human P450 1A1 was 0.00567 s⁻¹. Besides, at Human P450 1A1 (time-, concentration- and NADPH-dependence), the “inhibition behavior toward P450 1A1” value was “time-dependent inhibition; also recorded: NADPH-dependent manner”. Also, the IC50 against Human P450 2A6 and at rat P450 2B1 was over 50 µM in each case. Also, at Human P450 2A6 (at the dose of 50 μM), the “inhibition activity for P450 2A6” value is “did not show any inhibition activity”. In addition, the “inhibition activity for P450 2B1” value against rat P450 2B1 (at the dose of 50 μM) is given as “did not show any inhibition activity”.
